Reference: patent US20220243211A1, “PEPTIDE NUCLEIC ACID COMPOSITIONS WITH MODIFIED HOOGSTEEN BINDING SEGMENTS AND METHODS OF USE THEREOF” (Yale University, priority 2019, published 2022)
[PNA-N] = peptide nucleic acid monomer (N: the base)

Key:
[1] = Zeta potential and hydrodynamic diameter of formulated NPs by dynamic light scattering; type: physicochemical; conditions: NPs containing PNA/donor DNA, PBS buffer, n = 3; for Z Av Diameter: dynamic light scattering
Method: Blank NPs containing no PNA and a mismatch donor DNA as a control were prepared as a control. The mismatched donor DNA was purposely added into blank NPs because addition of donor DNA helps to produce a similar surface charge on the control NPs as on the test NPs encapsulated with PNA/donor DNA combinations. […] All NP in the diameters were in the range of 200-350 nm, as measured by dynamic light scattering (Table 1), consistent with previous measurements (McNeer, et al., Nat Commun 6, 6952 (2015), Fields, et al., Adv Healthc Mater 4, 361-366 (2015), Fields, et al., J Control Release 164, 41-48 (2012)). PNA/DNA-loaded NPs were cationic (Fields, et al., Adv Healthc Mater 4, 361-366 (2015), Fields, et al., J Control Release 164, 41-48 (2012)) for PBAE/PLGA/MPG NPs (Table 1).

[2] = tested on: CFTR function in the nasal epithelium; assay: Nasal potential difference (NPD) in CF mice after intranasal NPs; type: in vivo, mouse; conditions: F508del CF mice, intranasal PBAE/PLGA/MPG NPs with PNA/donor DNA
Method: FIG. 4 is a dot plot showing functional correction of CFTR with modified NPs in vivo. Mice were treated by intranasal administration with NPs. Nasal potential difference measurements were evaluated before and after NP treatments. The response to a 0Cl+amiloride+forksolin perfusate after NP treatment was compared to the response prior to treatment. Pre- and post-treatment changes in NPD were compared using paired t tests for each mouse. Each mouse is represented with an individual data point; in addition, the mean is shown with a horizontal line, surround by error bars showing the standard error of the mean. In the last panel, nasal potential difference changes in wild type mice are shown for comparison. […]
To determine if gamma tcPNAs were more efficient editing agents than classic PNA in vivo, CF mice were treated intranasally with PBAE/PLGA/MPG NPs containing mCF-PNA/DNA or γmCF-PNA-h/DNA on days 1, 3, 6, and 9. Subsequently, CF mice were assessed for CFTR function in the nasal epithelium by measuring the nasal potential difference (NPD), a non-invasive assay used to detect cAMP-stimulated chloride transport in vivo. […] NPD is assessed in all mice prior to treatment with NPs and reassessed after treatment such that alterations in this measure can be used as a surrogate of restored CFTR function.

[3] = mouse, in vivo
Method: To collect the lungs for histopathology, a midline incision from sternum to diaphragm was performed and, to remove blood from the pulmonary circulation, PBS+heparin was perfused via the right ventricle using a 20 g needle. Lungs were inflated with 0.5% low melt agarose at constant pressure, then removed from the chest and placed in fixative. Paraffin embedded tissues were stained with hemotoxylin and eosin stain for imaging.
To investigate whether NPs could effectively deliver the gene editing reagents to the lung TAMRA-conjugated mouse specific PNA (γmCF PNA-h) and mouse donor DNA into PBAE/PLGA/MPG NPs were formulated. After intranasal administration of γmCF PNA-h/DNA NPs into CF mice, the lungs were harvested and PNA uptake was assessed by fluorescence microscopy.

| Substance | Zeta Potential [1] | Z Av Diameter [1] | treated mice showing response to cyclic AMP stimulation (cyclic AMP activated Cl− conductance) in NPD [2] | histology of nasal epithelia / respiratory tract [3] |
| --- | --- | --- | --- | --- |
| H-KKK-JTTTTJJJ-OOO-CCCTTTTCAAGGTGAGTAG-KKK-NH2 [mCF PNA] (NTTTTNNNCCCTTTTCAAGGTGAGTAG; listed as DNA, chemistry not fully specified) | 46.17 mV | 317.8 nm | 50% | – |
| H-KKK-JTTTTJJJ-OOO-CCCTTTTCAAGGTGAGTAG-KKK-NH2 [γmCF PNA-h] (NTTTTNNNCCCTTTTCAAGGTGAGTAG; all [PNA-N], the base at N not given here; lysine tripeptides at both ends, OOO linker, some gamma-modified PNA monomers, further chemistry not fully specified) [tail clamp PNA targeting mouse CFTR gene with MPγ monomers in Hoogsteen domain] | 36.17 mV | 349.1 nm | 79% | No significant differences in the histology of the nasal epithelia |
